# Counter-ions that a name gives are not always drawn.
# Tests used:
# [1] = compound and its pharmaceutically acceptable salts; cited from earlier work
# [2] = physchem; settings: water
solubility thermodynamic [2] [µg/mL],SMILES,antidopaminergic activity [1]
–,"OCCOCCN1CCN(C2=Nc3ccccc3Sc3ccccc32)CC1 [11-[4-[2-(2-hydroxyethoxy)ethyl]-1-piperazinyl]-dibenzo[b,f][1,4]thiazepine]",exhibit useful antidopaminergic activity
3290,"OCCOCCN1CCN(C2=Nc3ccccc3Sc3ccccc32)CC1 [hemifumarate salt, 11-[4-[2-(2-hydroxyethoxy)ethyl]-1-piperazinyl]dibenzo[b,f][1,4]-thiazepine]",–

# From US5948437A, “Pharmaceutical compositions using thiazepine” (Zeneca Limited, priority 1997, dated 1999)
